Tests used:
[1] = system: sensitive L5178Y mouse T-lymphoma cells (PAR); experiment: MTT antiproliferative assay, sensitive cells; assay type: cell-based; settings: 72 h, mean ± SD
Procedure: (§1) Non-cancer mouse embryonic fibroblasts (NIH/3T3) were also used.
(§2) L5178Y mouse T-lymphoma cells (ECACC catalog no. 87111908, US FDA, Silver Spring, MD, USA) were transfected with the pHa MDR1/A retrovirus as previously reported. The ABCB1 (P-gp) overexpressing cells were selected by culturing the infected cells with 60 ng/mL of colchicine (Sigma-Aldrich Chemie GmbH, Steinheim, Germany) to preserve the MDR phenotype. L5178Y (parental, PAR) mouse T-cell lymphoma cells and the human ABCB1-transfected subline were cultured in McCoy’s 5A supplemented with 10% heat-inactivated horse serum, 100 U/L L-glutamine, and 100 mg/L penicillin-streptomycin mixture, all obtained from Sigma-Aldrich. The mouse embryonic fibroblast (NIH 3T3) cell line was purchased from ATCC (CRL-1658) and was cultured in DMEM medium supplemented with 10% fetal bovine serum. These adherent cells were detached using 0.25% trypsin and 0.02% EDTA for 5 min at 37 °C. Before the antiproliferative assay using NIH 3T3 cell line, the cells were seeded in untreated 96-well flat bottomed microtiter plates, following a 4 h incubation period in a humidified atmosphere (5% CO2, 95% air) at 37 °C.
The assay was performed according to the previously applied experimental settings.

[2] = system: mouse embryonic fibroblasts (NIH/3T3); experiment: MTT antiproliferative assay, non-cancer cells; assay type: cell-based; settings: for SI C/B (Selectivity Index): IC50 NIH/3T3 / IC50 MDR; for SI C/A (Selectivity Index): IC50 NIH/3T3 / IC50 PAR; for IC50: NIH3T3, non-cancer mouse embryonic fibroblasts, MTT, read-out: IC50 NIH/3T3 (C)
Procedure: as §1
In addition, the antiproliferative activity of the compounds was also evaluated on non-cancerous mouse embryonic fibroblast cells (NIH/3T3), whose values were compared with those of PAR and MDR cells by evaluation of the selective index (SI) values. […] The highest selective index values (SIC/A = 9.39; SIC/B = 10.79) were found for the derivative bearing the trimethoxyphenyl substituent (17).
as §2

[3] = system: human ABCB1-transfected L5178Y mouse lymphoma cells; experiment: Checkerboard combination assay with doxorubicin; assay type: cell-based; design: key to CI at ED50 (combination index): CI <1 synergy, =1 additive, >1 antagonism; settings: MDR cells; for CI at ED50 (combination index): best ratio
Procedure: The in vitro interactions between the compounds and the well-known antitumor drug and P-gp substrate, doxorubicin, were evaluated in a combination chemotherapy model on human ABCB1-transfected mouse T-lymphoma cells. The nature of drug–drug interactions was assessed by determination of the combination index (CI) using the Chou and Talalay method (Figure 1), and therefore evaluated as synergistic (CI < 1), additive (CI = 1), or antagonistic (CI > 1).
Doxorubicin (2 mg/mL, Teva Pharmaceuticals, Budapest, Hungary) was serially diluted horizontally in 100 µL as previously described, starting with 8.6 µM. The resistance modifier was subsequently diluted vertically in 50 µL; the starting concentration was determined based on the IC50. […] The checkerboard plates were kept for 72 h at 37 °C in a CO2 incubator, and at the end of the incubation period, the cell growth was determined by MTT staining method, as described earlier. Drug interactions were evaluated using Calcusyn software. Each dose–response curve (for individual agents as well as combinations) was fit to a linear model using the median effect equation in order to obtain the median effect value (corresponding to the IC50) and slope (m). The goodness-of-fit was assessed using the linear correlation coefficient, r, and only data from analysis with r > 0.90 were presented. The extent of interaction between drugs was expressed using the combination index, in which a CI value close to 1 indicates additivity, while a CI < 1 is defined as synergy and a CI > 1 as antagonism.

[4] = target: T1, recombinant human P-gp membranes (Homo sapiens, UniProt P08183); experiment: P-gp ATPase activity assay (Pgp-Glo); assay type: biochemical; settings: 25 µM; for % basal P-gp activity: basal activity = 100%
T1 construct: purchased Promega
T1 sequence (P08183 whole entry): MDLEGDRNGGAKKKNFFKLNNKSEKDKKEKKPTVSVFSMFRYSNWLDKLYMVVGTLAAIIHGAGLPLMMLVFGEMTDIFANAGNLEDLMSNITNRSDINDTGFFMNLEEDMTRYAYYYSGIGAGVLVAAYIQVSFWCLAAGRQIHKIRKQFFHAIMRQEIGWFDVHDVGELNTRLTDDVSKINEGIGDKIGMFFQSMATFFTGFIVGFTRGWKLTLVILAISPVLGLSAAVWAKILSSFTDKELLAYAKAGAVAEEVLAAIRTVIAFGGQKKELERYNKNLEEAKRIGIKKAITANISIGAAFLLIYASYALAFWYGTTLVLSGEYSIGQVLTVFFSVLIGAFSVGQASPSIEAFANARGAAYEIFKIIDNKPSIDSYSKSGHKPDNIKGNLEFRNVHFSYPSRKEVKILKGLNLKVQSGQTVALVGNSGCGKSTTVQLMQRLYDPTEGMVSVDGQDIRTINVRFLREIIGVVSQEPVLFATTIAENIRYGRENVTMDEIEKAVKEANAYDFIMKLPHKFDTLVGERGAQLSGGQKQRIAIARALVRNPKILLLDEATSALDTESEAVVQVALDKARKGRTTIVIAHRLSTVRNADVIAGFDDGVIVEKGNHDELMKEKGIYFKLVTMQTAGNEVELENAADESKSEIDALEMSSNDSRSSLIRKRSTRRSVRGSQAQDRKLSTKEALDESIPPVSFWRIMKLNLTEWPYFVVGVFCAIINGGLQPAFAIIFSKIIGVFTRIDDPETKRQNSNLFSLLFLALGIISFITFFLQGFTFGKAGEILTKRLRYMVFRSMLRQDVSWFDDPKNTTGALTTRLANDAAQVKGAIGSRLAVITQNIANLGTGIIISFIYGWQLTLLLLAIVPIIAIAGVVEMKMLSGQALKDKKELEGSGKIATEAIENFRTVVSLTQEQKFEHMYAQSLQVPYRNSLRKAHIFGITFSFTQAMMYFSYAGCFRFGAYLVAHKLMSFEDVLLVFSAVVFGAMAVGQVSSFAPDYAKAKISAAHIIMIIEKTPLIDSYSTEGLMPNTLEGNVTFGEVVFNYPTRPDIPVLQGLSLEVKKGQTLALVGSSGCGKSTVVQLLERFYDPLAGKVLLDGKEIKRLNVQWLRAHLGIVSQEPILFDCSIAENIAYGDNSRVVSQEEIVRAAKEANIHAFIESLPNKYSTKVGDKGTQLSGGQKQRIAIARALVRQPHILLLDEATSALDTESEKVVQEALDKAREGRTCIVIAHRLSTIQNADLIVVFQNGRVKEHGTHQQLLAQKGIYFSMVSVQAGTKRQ
Source text: Once it was established that ATP hydrolysis is directly associated with the P-gp efflux activity, the interaction mode between selected compounds (12, 17, 18, 20, and 29) and this transporter protein was further investigated using human P-gp membranes in the ATPase activity assay (P-gp-Glo^TM) to gather insights about their interaction with P-gp activity, namely, as stimulators or inhibitors. This ATPase activity assay is based on the ATP dependence of the light-generating reaction of firefly luciferase. After incubating P-gp with ATP, the reaction is stopped, and the ATP consumption by P-gp is given by a luciferase-generated luminescent signal due to the remaining unmetabolized ATP. Thus, a greater decrease in the signal means a higher P-gp activity.
Sodium orthovanadate (Vanadate, Na3VO4) is an inhibitor of P-gp ATPase activity; thus, after treating samples with vanadate, no P-gp-dependent ATP consumption is observed. Therefore, the P-gp basal ATP consumption (basal activity) is defined as the difference between the luminescent signal of samples treated with vanadate and untreated. Consequently, the tested compounds were ranked as stimulators or inhibitors by comparing their P-gp ATPase activity with the basal activity. Verapamil (0.5 mM), a known P-gp substrate and activator of the ATPase activity of this transporter, thus causing a decrease in the percentage of luminescence of luciferase when compared with untreated samples (Figure 2), was used as control. The results are represented in Figure 2 as the difference between the luminescence of luciferase observed when treated with the compounds and with vanadate in comparison with the basal activity (100%).
The P-glycoprotein ATPase activity was determined using the Pgp-Glo^TM Assay Systems Promega kit according to the manufacturer’s instructions. Briefly, 20 µL of recombinant human P-gp membranes (1.25 mg/mL), expressing high levels of human P-gp, were incubated in 20 µL of Pgp-Glo^TM assay buffer for 5 min at 37 °C. Compounds were tested at 25 µM sodium orthovanadate (Na3VO4, 0.25 mM) as an inhibitor control, verapamil as a substrate control (0.5 mM), and DMSO at 2% as solvent control. The reaction was initiated by adding 10 µL of 25 mM MgATP and incubated at 37 °C for 40 min. The ATPase reaction was stopped, and after adding 50 µL of ATP Detection Reagent, the samples were incubated at room temperature for 20 min. The luciferase-generated luminescent signal emitted was measured in a CLARIOstar Plus plate reader (BMG Labtech, UK) at 580 nm. The % of basal P-gp activity was calculated through the ratio between the luminescence measured of the P-gp ATPase activity of each compound and the basal activity according to Equation (4).
(4) % basal P-gp activity = LumNa3VO4−Lumtreated/LumNa3VO4−Lumuntreated×100%
Figure 2 Effect of compounds 12, 17, 18, 20, 29, and verapamil (VER) on P-gp ATPase activity. The compounds are identified as P-gp substrates if they stimulate its basal activity (>100%) or as modulators when inhibiting basal activity (<100%). Compounds were tested at 25 µM and verapamil at 0.5 mM. Results were calculated as the means ± SD from experiments performed in triplicates.

[5] = system: human ABCB1-gene transfected L5178Y subline (MDR); settings: for RR (relative resistance ratio) = IC50MDR/IC50PAR: RR ≤ 0.5 means CS effect

SMILES	IC50 [1] [µM]	Effect on P-gp ATPase activity [4]	% basal P-gp activity [4] [%]	IC50 [5] [µM]	RR (relative resistance ratio) = IC50MDR/IC50PAR [5]	SI C/B (Selectivity Index) [2]	SI C/A (Selectivity Index) [2]	IC50 [2] [µM]	Interaction [3]	CI at ED50 (combination index) [3]
CCC1CN(C)C2Cc3c([nH]c4ccccc34)C(=NNC(=O)Nc3ccc(Cl)cc3)CC1C2C(=O)OC (centres unmarked) [Compound 28, 3-[2″-((4‴-chlorophenyl)carbamoyl)hydrazineylidene]dregamine]	6.22 ± 0.59	–	–	5.21 ± 0.09	0.84	2.45	2.06	12.8 ± 0.95	Strong Synergism	0.158
CCC1CN(C)C2Cc3c([nH]c4ccccc34)C(=NNC(=O)NC(C)(C)C)CC1C2C(=O)OC (centres unmarked) [Compound 23]	26.3 ± 0.5	–	–	12.3 ± 1.8	–	>8.11	>3.81	> 100	Strong Synergism	0.163
CCC1CN(C)C2Cc3c([nH]c4ccccc34)C(=NNC(=O)NC3CCCCC3)CC1C2C(=O)OC (centres unmarked) [Compound 24]	12.85 ± 0.12	–	–	5.69 ± 0.71	–	4.68	2.07	26.6 ± 0.31	Synergism	0.301
CCC1CN(C)C2Cc3c([nH]c4ccccc34)C(=NNC(=O)Nc3ccc(OC)cc3)CC1C2C(=O)OC (centres unmarked) [Compound 27, 3-[2″-((4‴-methoxyphenyl)carbamoyl)hydrazineylidene]dregamine]	6.88 ± 0.35	–	–	6.37 ± 0.83	0.92	6.32	5.84	40.2 ± 3.49	Strong Synergism	0.225
CCCCCNC(=O)NN=C1CC2C(CC)CN(C)C(Cc3c1[nH]c1ccccc31)C2C(=O)OC (centres unmarked) [Compound 22]	5.43 ± 0.38	–	–	4.28 ± 0.25	0.79	6.24	4.92	26.7 ± 0.63	Strong Synergism	0.219
CCC1CN(C)C2Cc3c([nH]c4ccccc34)C(=NN=Cc3ccc(Br)cc3)CC1C2C(=O)OC (centres unmarked) [Compound 8, 3-[(4″-bromobenzylidene)hydrazineylidene]dregamine]	8.84 ± 0.76	–	–	7.47 ± 0.17	0.85	1.56	1.32	11.7 ± 2.07	Synergism	0.451
CCCC=NN=C1CC2C(CC)CN(C)C(Cc3c1[nH]c1ccccc31)C2C(=O)OC (centres unmarked) [Compound 3, 3-[(butylidene)hydrazineylidene]dregamine]	53.1 ± 3.16	–	–	31.5 ± 1.84	0.59	>3.17	>1.88	> 100	Synergism	0.305

Continued by falling IC50 [1], values first:

IC50 [1] [µM]	Effect on P-gp ATPase activity [4]	% basal P-gp activity [4] [%]	IC50 [5] [µM]	RR (relative resistance ratio) = IC50MDR/IC50PAR [5]	SMILES	SI C/B (Selectivity Index) [2]	SI C/A (Selectivity Index) [2]	IC50 [2] [µM]	Interaction [3]	CI at ED50 (combination index) [3]
13.1 ± 0.74	–	–	4.62 ± 0.14	–	CCC1CN(C)C2Cc3c([nH]c4ccccc34)C(=NN=Cc3cccc(OC)c3)CC1C2C(=O)OC (centres unmarked) [Compound 7, 3-[(3″-methoxybenzylidene)hydrazineylidene]dregamine]	2.61	0.92	12.1 ± 1.4	Strong Synergism	0.152
11.3 ± 0.84	inhibitors of P-gp ATPase activity	< 100	9.58 ± 0.74	0.85	CCC1CN(C)C2Cc3c([nH]c4ccccc34)C(=NN=Cc3ccc4ccccc4c3)CC1C2C(=O)OC (centres unmarked) [Compound 18, 3-[(2″-naphthalenylmethylene)hydrazineylidene]dregamine]	1.22	1.04	11.7 ± 1.53	Strong Synergism	0.285
6.56 ± 0.04	inhibitors of P-gp ATPase activity	< 100	7.4 ± 0.2	1.13	CCC1CN(C)C2Cc3c([nH]c4ccccc34)C(=NNC(=O)Nc3ccc(Br)cc3)CC1C2C(=O)OC (centres unmarked) [Compound 29, 3-[2″-((4‴-bromophenyl)carbamoyl)hydrazineylidene]dregamine]	1.76	1.99	13 ± 0.4	Strong Synergism	0.173
6.04 ± 0.36	–	–	4.83 ± 0.05	0.80	CCC1CN(C)C2Cc3c([nH]c4ccccc34)C(=NNC(=O)Nc3ccc([N+](=O)[O-])cc3)CC1C2C(=O)OC (centres unmarked) [Compound 30, 3-[2″-((4‴-nitrophenyl)carbamoyl)hydrazineylidene]dregamine]	2.90	2.32	14 ± 0.92	Synergism	0.423
